Source: patent publication US20250326785A1, “SODIUM SALT AND ETHANOLAMINE SALT OF 23-HYDROXYTORMENTIC ACID” (HUYABIO International, LLC, priority 2024, published 2025)
Read-outs that look alike come from different tables or passages of the source.

How the values were obtained:
[1] = Stability study at 25° C./60% RH, 40° C./75% RH and 60° C. (XRPD, HPLC purity, impurity tracking); conditions: for XRPD: number = sodium salt XRPD Pattern; for RRT 0.801 / RRT 0.970 / RRT 1.000 (HBI-3808) / RRT 1.025 (Isomer of HBI-3808) / Total Impurities / RRT 1.935 / RRT 1.767: impurity tracking
Source text: Stability of HBI-3808 Sodium Salt Pattern 2 was studied over 13 weeks.
Table 2F presents impurity tracking results from a 13-week stability study of HBI-3808 sodium salt of Pattern 2. […]

[2] = Hydration study in methanol/water aw 0.1, 0.5 and 0.9; type: physicochemical
Source text: Hydration studies of ethanolamine salt.

[3] = Varying humidity (VH)-XRPD; type: physicochemical; conditions: 30° C.
Description: During the sorption phase, sodium salt Pattern 2 was observed between 40-60% RH. […] A mixture of sodium salt Pattern 2 and 5 was also observed at 80% RH. […] During the second desorption, from 90% RH to 40% RH, sodium salt Pattern 5 was maintained.
VH-XRPD analysis was carried out between 40-0% RH (FIG. 5L).

[4] = Dynamic vapor sorption (DVS) analysis; type: physicochemical
Description: GC analysis indicated residual solvent contents of 2847 ppm methanol; and 27 ppm TBME. […] No residual methanol or TBME was detected due to signal over-lap. […] TG-DSC analysis indicated two weight losses. The first weight loss of 2.3 wt. % was observed between 20-170° C. […] In the DSC thermogram, three endothermic events were observed (FIG. 17I). […] FT-IR (FIG. 17J) and Raman spectra (FIG. 17K) were recorded for reference. […] XRPD pattern of the ethanolamine salt was retained post-DVS (FIG. 17N). […] However, at the end of the experiment the solids on the microscope slide had discolored (FIG. 17O).

[5] = for HPLC Conc./: based on free acid
Source text: pH-dependent solubility of the HBI- 3808 sodium salt of Pattern 2 was studied.
pH dependent solubility of the HBI- 3808 sodium salt of Pattern 5 was studied.

[6] = Salt disproportionation study (slurry in water, XRPD of solids, pH of mother liquor); type: physicochemical; conditions: for XRPD of recovered solids: ca. 24 h at 25° C.
Description: The pH of the filtered mother liquor was 9.77.
Salt disproportionation studies of ethanolamine salt. […] The pH of the filtered mother liquor was 8.65.
Method: 40 mg of sodium salt of HBI-3808 having a XRPD of Pattern 2, was weighed into a 2 mL push cap vial and a stirrer bar added. 0.2 mL of water was added to the vial and the experiment was stirred for ca. 24 h at 25° C. After 24 h the slurry was filtered by centrifuge filtration and the recovered solids were analyzed by XRPD. The pH of the filtered mother liquor was measured.

[7] = 40° C./75% RH (open vial), 2 Weeks
[8] = 40° C./75% RH (open vial), 4 Weeks
[9] = 40° C./75% RH (open vial), 8 Weeks
[10] = 40° C./75% RH (open vial), 13 Weeks

HPLC/ % area ([1]; 25° C./60% RH (open vial), 1 Week): 97.3 % area
HPLC/ % area ([1]; 25° C./60% RH (open vial), 2 Weeks): 97.2 % area
HPLC/ % area ([1]; 25° C./60% RH (open vial), 4 Weeks): 97.3 % area
HPLC/ % area ([1]; 25° C./60% RH (open vial), 8 Weeks): 96.7 % area
HPLC/ % area ([1]; 25° C./60% RH (open vial), 13 Weeks): 97.1 % area
HPLC/ % area ([1]; 40° C./75% RH (open vial), 1 Week): 97.1 % area
HPLC/ % area [1, 7]: 97.0 % area
XRPD [1, 7]: 5
HPLC/ % area [1, 8]: 97.3 % area
XRPD [1, 8]: 5
HPLC/ % area [1, 9]: 96.3 % area
XRPD [1, 9]: 5
HPLC/ % area [1, 10]: 97.0 % area
XRPD [1, 10]: 5
HPLC/ % area ([1]; 60° C. (closed vial), 1 Week): 97.2 % area
XRPD ([1]; 60° C. (closed vial), 1 Week): 2
HPLC/ % area ([1]; 60° C. (closed vial), 2 Weeks): 97.3 % area
XRPD ([1]; 60° C. (closed vial), 2 Weeks): 2
HPLC/ % area ([1]; 60° C. (closed vial), 4 Weeks): 97.3 % area
XRPD ([1]; 60° C. (closed vial), 4 Weeks): 2
HPLC/ % area ([1]; 60° C. (closed vial), 8 Weeks): 96.4 % area
XRPD ([1]; 60° C. (closed vial), 8 Weeks): 2
HPLC/ % area ([1]; 60° C. (closed vial), 13 Weeks): 97.3 % area
RRT 0.801 ([1]; 25° C./60% RH, 1 week): 0.10 % area
RRT 0.970 ([1]; 25° C./60% RH, 1 week): 0.10 % area
RRT 1.000 (HBI-3808) ([1]; 25° C./60% RH, 1 week): 97.31 % area
RRT 1.025 (Isomer of HBI-3808) ([1]; 25° C./60% RH, 1 week): 2.48 % area
Total Impurities ([1]; 25° C./60% RH, 1 week): 2.69 % area
RRT 0.970 ([1]; 25° C./60% RH, 2 weeks): 0.12 % area
RRT 1.000 (HBI-3808) ([1]; 25° C./60% RH, 2 weeks): 97.29 % area
RRT 1.025 (Isomer of HBI-3808) ([1]; 25° C./60% RH, 2 weeks): 2.39 % area
RRT 1.935 ([1]; 25° C./60% RH, 2 weeks): 0.20 % area
Total Impurities ([1]; 25° C./60% RH, 2 weeks): 2.71 % area
RRT 0.970 ([1]; 25° C./60% RH, 4 weeks): 0.11 % area
RRT 1.000 (HBI-3808) ([1]; 25° C./60% RH, 4 weeks): 97.47 % area
RRT 1.025 (Isomer of HBI-3808) ([1]; 25° C./60% RH, 4 weeks): 2.41 % area
Total Impurities ([1]; 25° C./60% RH, 4 weeks): 2.53 % area
RRT 0.970 ([1]; 25° C./60% RH, 8 weeks): 0.10 % area
RRT 1.000 (HBI-3808) ([1]; 25° C./60% RH, 8 weeks): 96.99 % area
RRT 1.025 (Isomer of HBI-3808) ([1]; 25° C./60% RH, 8 weeks): 2.51 % area
RRT 1.767 ([1]; 25° C./60% RH, 8 weeks): 0.29 % area
Total Impurities ([1]; 25° C./60% RH, 8 weeks): 3.01 % area
RRT 0.801 ([1]; 25° C./60% RH, 13 weeks): 0.12 % area
RRT 1.000 (HBI-3808) ([1]; 25° C./60% RH, 13 weeks): 97.33 % area
RRT 1.025 (Isomer of HBI-3808) ([1]; 25° C./60% RH, 13 weeks): 2.37 % area
RRT 1.935 ([1]; 25° C./60% RH, 13 weeks): 0.19 % area
Total Impurities ([1]; 25° C./60% RH, 13 weeks): 2.67 % area
RRT 0.801 ([1]; 40° C./75% RH, 1 week): 0.10 % area
RRT 0.970 ([1]; 40° C./75% RH, 1 week): 0.14 % area
RRT 1.000 (HBI-3808) ([1]; 40° C./75% RH, 1 week): 97.28 % area
RRT 1.025 (Isomer of HBI-3808) ([1]; 40° C./75% RH, 1 week): 2.48 % area
Total Impurities ([1]; 40° C./75% RH, 1 week): 2.72 % area
RRT 0.970 ([1]; 40° C./75% RH, 2 weeks): 0.12 % area
RRT 1.000 (HBI-3808) ([1]; 40° C./75% RH, 2 weeks): 97.26 % area
RRT 1.025 (Isomer of HBI-3808) ([1]; 40° C./75% RH, 2 weeks): 2.40 % area
RRT 1.935 ([1]; 40° C./75% RH, 2 weeks): 0.22 % area
Total Impurities ([1]; 40° C./75% RH, 2 weeks): 2.74 % area
RRT 0.970 ([1]; 40° C./75% RH, 4 weeks): 0.11 % area
RRT 1.000 (HBI-3808) ([1]; 40° C./75% RH, 4 weeks): 97.5 % area
RRT 1.025 (Isomer of HBI-3808) ([1]; 40° C./75% RH, 4 weeks): 2.41 % area
Total Impurities ([1]; 40° C./75% RH, 4 weeks): 2.52 % area
RRT 0.970 ([1]; 40° C./75% RH, 8 weeks): 0.21 % area
RRT 1.000 (HBI-3808) ([1]; 40° C./75% RH, 8 weeks): 96.88 % area
RRT 1.025 (Isomer of HBI-3808) ([1]; 40° C./75% RH, 8 weeks): 2.51 % area
RRT 1.767 ([1]; 40° C./75% RH, 8 weeks): 0.40 % area
Total Impurities ([1]; 40° C./75% RH, 8 weeks): 3.12 % area
RRT 1.000 (HBI-3808) ([1]; 40° C./75% RH, 13 weeks): 97.41 % area
RRT 1.025 (Isomer of HBI-3808) ([1]; 40° C./75% RH, 13 weeks): 2.40 % area
RRT 1.935 ([1]; 40° C./75% RH, 13 weeks): 0.20 % area
Total Impurities ([1]; 40° C./75% RH, 13 weeks): 2.59 % area
RRT 0.801 ([1]; 60° C., 1 week): 0.12 % area
RRT 1.000 (HBI-3808) ([1]; 60° C., 1 week): 97.46 % area
RRT 1.025 (Isomer of HBI-3808) ([1]; 60° C., 1 week): 2.43 % area
Total Impurities ([1]; 60° C., 1 week): 2.54 % area
RRT 0.970 ([1]; 60° C., 2 weeks): 0.12 % area
RRT 1.000 (HBI-3808) ([1]; 60° C., 2 weeks): 97.27 % area
RRT 1.025 (Isomer of HBI-3808) ([1]; 60° C., 2 weeks): 2.41 % area
RRT 1.935 ([1]; 60° C., 2 weeks): 0.20 % area
Total Impurities ([1]; 60° C., 2 weeks): 2.73 % area
RRT 0.970 ([1]; 60° C., 4 weeks): 0.11 % area
RRT 1.000 (HBI-3808) ([1]; 60° C., 4 weeks): 97.49 % area
RRT 1.025 (Isomer of HBI-3808) ([1]; 60° C., 4 weeks): 2.40 % area
Total Impurities ([1]; 60° C., 4 weeks): 2.51 % area
RRT 0.970 ([1]; 60° C., 8 weeks): 0.12 % area
RRT 1.000 (HBI-3808) ([1]; 60° C., 8 weeks): 97.04 % area
RRT 1.025 (Isomer of HBI-3808) ([1]; 60° C., 8 weeks): 2.49 % area
RRT 1.767 ([1]; 60° C., 8 weeks): 0.35 % area
Total Impurities ([1]; 60° C., 8 weeks): 2.96 % area
RRT 1.000 (HBI-3808) ([1]; 60° C., 13 weeks): 97.41 % area
RRT 1.025 (Isomer of HBI-3808) ([1]; 60° C., 13 weeks): 2.41 % area
RRT 1.935 ([1]; 60° C., 13 weeks): 0.18 % area
Total Impurities ([1]; 60° C., 13 weeks): 2.59 % area
RRT 1.000 (HBI-3808) ([1]; T = 0): 97.82 % area
RRT 1.025 (Isomer of HBI-3808) ([1]; T = 0): 2.18 % area
Total Impurities ([1]; T = 0): 2.18 % area
input purity by HPLC ([1]; input material of the stability study (baseline)): 97.2 % area
XRPD of solids recovered at the end of the experiment [2]: consistent with sodium salt Pattern 2
XRPD pattern during desorption ([3]; 40-0% RH): no change in XRPD Pattern
XRPD pattern during sorption ([3]; at 90% RH): only sodium salt Pattern 5 was observed
XRPD of recovered material post-DVS [4]: consistent with sodium salt of Pattern 5
reversibility of mass uptake/loss ([4]; Pattern 2: second DVS cycle): reversible
water (mass) uptake ([4]; at 80% RH/25° C. (Pattern 2: second DVS cycle)): 0.8 wt. %
irreversible mass loss ([4]; first sorption cycle between 60-80% RH): about 2.4 wt. %
final Measured pH ([5]; FaSSGF): 9.35
HPLC Conc./ ([5]; FaSSGF): >221.2 mg/mL
concentration ([5]; pH 1.2): < 100 µg/mL
HPLC Conc./ ([5]; target pH 1.2 chloride buffer, start 200 mg/mL (ethanolamine salt 100 mg/mL)): <0.005 mg/mL
HPLC Conc./ ([5]; target pH 3.0 acetate buffer): 0.006 mg/mL
HPLC Conc./ ([5]; target pH 4.0 acetate buffer): <0.005 mg/mL
HPLC Conc./ ([5]; target pH 6.8 phosphate buffer): 0.4 mg/mL
HPLC Conc./ ([5]; target pH 8.0 phosphate buffer): 15.3 mg/mL
pH of the filtered mother liquor [6]: 9.77
SMILES: CC1CCC2(C(=O)[O-])CCC3(C)C(=CCC4C5(C)CC(O)C(O)C(C)(CO)C5CCC43C)C2C1(C)O.[Na+] (centres unmarked) [HBI-3808 sodium salt of Pattern 2, sodium salt of 23-hydroxytormentic acid]
change in chemical purity by HPLC over the stability study ([1]; all conditions (25° C./60% RH; 40° C./75% RH; 60° C.), 13 weeks (Pattern 5: 4 weeks)): no significant decrease in chemical purity
XRPD pattern during sorption ([3]; at 70% RH): composite XRPD diffractogram of sodium salt Pattern 2 and 5
XRPD of recovered solids [6]: consistent with HBI-3808 sodium salt of Pattern 5
XRPD of recovered solids ([6]; listed as sodium salt of HBI-3808 having a XRPD of Pattern 2): consistent with sodium salt of HBI-3808 having a XRPD of pattern 5
